Here are results for 37 compounds from patent publication US5624906A, “Oral hygiene compositions comprising heteroatom containing alkyl aldonamide compounds” (Lever Brothers Company, Division of Conopco, Inc., priority 1994, dated 1997).

A short description of one series: Krafft point. The series is classed as physicochemical. Conditions: for Krafft Point (0.1%): 0.1% in water; for Krafft Point (1.0%): 1.0% in water. As to the method:
The temperature at and above which surfactants begin to form micelles instead of precipitates is referred to as the Krafft point (Tk) and at this temperature the solubility of a surfactant becomes equal to its CMC (numerical value at which micelles are formed).
The Krafft point was measured by preparing 650 ml of a 0.1% or 1.0% dispersion of aldonamide in water by weight. If the surfactant was soluble at room temperature, the solution was slowly cooled to 0° C. […] (less than zero). If it precipitated out of solution, the temperature at which precipitation occurs was taken as the Krafft point.
If the surfactant was insoluble at room temperature, the dispersion was slowly heated until the solution became homogeneous. It was then slowly cooled until precipitation occurred. The temperature at which the surfactant precipitates out of solution upon cooling was taken as the Krafft point.

Series [1] can be described thus: Ross-Miles foam height (Examples 81-84). The series is classed as physicochemical. Conditions: for Foam Height Initial / Foam Height Final: 0.1% aldonamide, 40° C. (or 5-10° C. above Krafft point), 0 ppm hardness; for Foam Height Final: after 10 minutes; for Solubility: 0.1% in water. Here is the method:
In the Ross-Miles method, 200 mL of a surfactant solution contained in a pipette of specified dimensions with a 2.9-mm-i.d. orifice is allowed to fall 90 cm onto 50 mL of the same solution contained in a cylindrical vessel maintained at a given temperature by means of a water jacket. The height of the foam produced in the cylindrical vessel is read immediately after all the solution has run out of the pipette and then again after a given amount of time.
Using this method, the foam production (initial foam height in mm) and foam stability (final foam height after 10 minutes in mm) were measured at 0.1% aldonamide concentration, 40° C. and 0 ppm (parts per million) hardness.

Where only a bound is given, the exact number is not on record here.

In the case of `CCCCCCCCCCCCOC(=O)C(C)NC(=O)[C@H](O)[C@@H](O)[C@H](O)[C@H](O)CO` (mixture of isomers) [N-D-Gluconyl C12 DL-Alaninate, N-D-Gluconyl Dodecyl DL-Alaninate], the “Krafft Point (0.1%)” value in “Krafft point” was 53 °C. In the case of `CCCCCCCNC(=O)[C@H](O)[C@@H](O)[C@H](O)[C@H](O)CO` [C7 D-Gluconamide], in “Krafft point”, the “Krafft Point (0.1%)” value is below 0 °C. Also, in series [1], the “Foam Height Initial” value is recorded as 0 mm and the “Foam Height Final” value was 0 mm. As to `CCCCCCCCNC(=O)[C@H](O)[C@@H](O)[C@H](O)[C@H](O)CO` [C8 D-Gluconamide], the “Krafft Point (0.1%)” value in “Krafft point” worked out at 12 °C. For the same compound, in series [1], the “Foam Height Initial” value was determined as 0 mm and the “Foam Height Final” value stood at 0 mm.

In the case of `CCCCCCCCCNC(=O)[C@H](O)[C@@H](O)[C@H](O[C@@H]1O[C@H](CO)[C@H](O)[C@H](O)[C@H]1O)[C@H](O)CO` [C9 D-Lactobionamide, nonyl D-lactobionamide], the “Krafft Point (1.0%)” value in “Krafft point” turned out to be 42 °C. Besides, in series [1], the “Foam Height Initial” value amounted to 0 mm and the “Foam Height Final” value is 0 mm. As for `CCCCCCCCCCCNC(=O)[C@H](O)[C@@H](O)[C@H](O)[C@H](O)CO` [C11 D-Gluconamide], the “Krafft Point (0.1%)” value in the series “Krafft point” was found to be 87 °C. As for `CCCCCCCCCCCNC(=O)[C@H](O)[C@@H](O)[C@H](O[C@@H]1O[C@H](CO)[C@H](O)[C@H](O)[C@H]1O)[C@H](O)CO` [C11 D-Lactobionamide], in the series “Krafft point”, the “Krafft Point (1.0%)” value was determined as 61 °C. Further, in series [1], the “Foam Height Initial” value came to 0 mm and the “Foam Height Final” value amounted to 0 mm.

On to `CCCCCCCCCCCCNC(=O)[C@H](O)[C@@H](O)[C@@H](O)[C@H](O)CO` [C12 D-Galactonamide], for which the “Krafft Point (0.1%)” value in “Krafft point” is above 100 °C. Also, in series [1], the “Solubility” value is “Insoluble”. With `CCCCCCCCCCCCNC(=O)[C@H](O)[C@H](O)[C@@H](O)[C@H](O)[C@H](O)CO` [C12 D-Glucoheptonamide], in the series “Krafft point”, the “Krafft Point (0.1%)” value worked out at 91 °C. Same read-out and setting: then `CCCCCCCCCCCCNC(=O)C(O)C(O)C(O)C(O)C(O)C(O)CO` [C12 D-Glucooctonamide], with below 86 °C. For the compound `CCCCCCCCCCCCNC(=O)[C@H](O)[C@H](O)[C@@H](O)[C@@H](O)[C@H](O)CO` [C12 D-Glycero-L-Mannoheptonamide], in the series “Krafft point”, the “Krafft Point (0.1%)” value was above 100 °C. Besides, the “Solubility” value in series [1] is “Insoluble”. As for `CCCCCCCCCCCCNC(=O)[C@H](O)[C@@H](O)[C@H](O[C@@H]1O[C@H](CO)[C@H](O)[C@H](O)[C@H]1O)[C@H](O)CO` [C12 D-Lactobionamide], the “Krafft Point (1.0%)” value in “Krafft point” was found to be 38 °C. Also, the “Foam Height Final” value in series [1] came to 20 mm. `CCCCCCCCCCCCNC(=O)[C@@H](O)[C@H](O)[C@H](O)[C@@H](O)CO` [C12 L-Galactonamide]: in the series “Krafft point”, the “Krafft Point (0.1%)” value was above 100 °C. Besides, in series [1], the “Solubility” value is on record as “Insoluble”. With `CCCCCCCCCCCCNC(=O)[C@@H](O)[C@H](O)[C@@H](O)[C@@H](O)CO` [C12 L-Gluconamide], the “Krafft Point (0.1%)” value in “Krafft point” turned out to be 91 °C. In the case of `CCCCCCCCCCCCNC(=O)[C@H](O)[C@H](O)[C@@H](O)[C@@H](O)CO` [C12 L-Mannonamide], the “Krafft Point (0.1%)” value in “Krafft point” is above 100 °C. The “Solubility” value in series [1] is given as “Insoluble”. For `CCCCCCCCCCCCOCCCNC(=O)[C@H](O)[C@H](O)[C@@H](O)[C@H](O)[C@H](O)CO` [C12 Oxypropyl D-Glucoheptonamide], the “Krafft Point (0.1%)” value in the series “Krafft point” was 73 °C. In series [1], the “Foam Height Final” value is on record as 80 mm.

Consider `CCCCCCCCCCCCOCCCNC(=O)[C@H](O)[C@@H](O)[C@H](O[C@H]1O[C@H](CO)[C@@H](O)[C@H](O)[C@H]1O)[C@H](O)CO` [C12 Oxypropyl D-Maltobionamide, dodecyloxypropyl D-maltobionamide], for which the “Krafft Point (1.0%)” value in the series “Krafft point” is below 0 °C. In the case of `CCCCCCCCCCCCNC(=O)[C@H](O)[C@H](O)[C@H](O)CO` [C12 Ribonamide, dodecyl D-ribonamide], the “Krafft Point (0.1%)” value in the series “Krafft point” is 54 °C. Take `CCCCCCCCCCCCCNC(=O)[C@H](O)[C@@H](O)[C@H](O[C@@H]1O[C@H](CO)[C@H](O)[C@H](O)[C@H]1O)[C@H](O)CO` [C13 D-Lactobionamide]: the “Krafft Point (1.0%)” value in “Krafft point” was 70 °C. Moreover, the “Foam Height Final” value in series [1] is recorded as 78 mm.

In the case of `CCCCCCCCCCCCCCNC(=O)[C@H](O)[C@@H](O)[C@H](O)[C@H](O)CO` [C14 D-Gluconamide], the “Krafft Point (0.1%)” value in the series “Krafft point” is above 100 °C. The “Solubility” value in series [1] is given as “Insoluble”. Turning to `CCCCCCCCCCCCCCNC(=O)[C@H](O)[C@@H](O)[C@H](O[C@@H]1O[C@H](CO)[C@H](O)[C@H](O)[C@H]1O)[C@H](O)CO` [C14 D-Lactobionamide], the “Krafft Point (1.0%)” value in the series “Krafft point” turned out to be 18 °C. Moreover, in series [1], the “Foam Height Final” value came out at 59 mm. Take `CCCCCCCCCCCCCCNC(=O)[C@H](O)[C@@H](O)[C@H](O[C@H]1O[C@H](CO)[C@@H](O)[C@H](O)[C@H]1O)[C@H](O)CO` [C14 D-Maltobionamide]: the “Krafft Point (1.0%)” value in the series “Krafft point” is 46 °C. Moreover, the “Foam Height Final” value in series [1] was found to be 140 mm. Turning to `CCCCCCCCCCCCCCOCCCNC(=O)[C@H](O)[C@@H](O)[C@H](O)[C@H](O)CO` [C14 Oxypropyl D-Gluconamide], the “Krafft Point (0.1%)” value in the series “Krafft point” was determined as 53 °C.

For the compound `CCCCCCCCCCCCCCOCCCNC(=O)[C@H](O)[C@@H](O)[C@H](O[C@@H]1O[C@H](CO)[C@H](O)[C@H](O)[C@H]1O)[C@H](O)CO` [C14 Oxypropyl D-Lactobionamide, tetradecyloxypropyl D-lactobionamide], the “Krafft Point (1.0%)” value in “Krafft point” is below 0 °C. For `CCCCCCCCCCCCCCCNC(=O)[C@H](O)[C@@H](O)[C@H](O[C@@H]1O[C@H](CO)[C@H](O)[C@H](O)[C@H]1O)[C@H](O)CO` [C15 D-Lactobionamide], in “Krafft point”, the “Krafft Point (1.0%)” value was determined as 84 °C. With `CCCCCCCCCCCCCCCCNC(=O)[C@H](O)[C@@H](O)[C@H](O)[C@H](O)CO` [C16 D-Gluconamide], in the series “Krafft point”, the “Krafft Point (0.1%)” value was above 100 °C. Moreover, in series [1], the “Solubility” value is on record as “Insoluble”. In the case of `CCCCCCCCCCCCCCCCNC(=O)[C@H](O)[C@@H](O)[C@H](O[C@@H]1O[C@H](CO)[C@H](O)[C@H](O)[C@H]1O)[C@H](O)CO` [C16 D-Lactobionamide], the “Krafft Point (1.0%)” value in “Krafft point” amounted to 64 °C. Further, in series [1], the “Foam Height Initial” value is given as 95 mm and the “Foam Height Final” value worked out at 95 mm. Take `CCCCCCCCCCCCCCCCCCNC(=O)[C@H](O)[C@@H](O)[C@H](O)[C@H](O)CO` [C18 D-Gluconamide]: the “Krafft Point (0.1%)” value in the series “Krafft point” was above 100 °C. In addition, the “Solubility” value in series [1] is “Insoluble”.

For the compound `CCCCCCCCCCCCCCCCCCNC(=O)[C@H](O)[C@@H](O)[C@H](O[C@@H]1O[C@H](CO)[C@H](O)[C@H](O)[C@H]1O)[C@H](O)CO` [C18 D-Lactobionamide], the “Krafft Point (1.0%)” value in the series “Krafft point” worked out at 82 °C. The same measure, in the same setting: then `CCCCCCCCCCCCOC(=O)CNC(=O)[C@H](O)[C@@H](O)[C@H](O[C@@H]1O[C@H](CO)[C@H](O)[C@H](O)[C@H]1O)[C@H](O)CO` [D-Lactobionyl C12 Glycinate, N-D-lactobionyl dodecyl glycinate], with below 0 °C.

Consider `CCCCCCCCCCCCOC(=O)CCNC(=O)[C@H](O)[C@@H](O)[C@H](O[C@@H]1O[C@H](CO)[C@H](O)[C@H](O)[C@H]1O)[C@H](O)CO` [D-Lactobionyl C12 β-Alaninate, N-D-lactobionyl dodecyl β-alaninate], for which the “Krafft Point (1.0%)” value in the series “Krafft point” was below 0 °C.

Consider `CCCCC(CC)COCCCNC(=O)[C@H](O)[C@@H](O)[C@H](O)[C@H](O)CO` (stereo partly drawn) [Ethylhexyloxypropyl D-Gluconamide], for which the “Krafft Point (0.1%)” value in “Krafft point” was below 0 °C. In addition, in series [1], the “Foam Height Initial” value was 0 mm and the “Foam Height Final” value was found to be 0 mm. Regarding `CCCCCCCCCCCCOCCOCCOC(=O)CNC(=O)[C@H](O)[C@@H](O)[C@H](O)[C@H](O)CO` [N-D-Gluconyl C12 Di(oxyethyl) Glycinate, N-D-Gluconyl Dodecyldi(oxyethyl) Glycinate], the “Krafft Point (0.1%)” value in the series “Krafft point” was below 0 °C. Same read-out and setting: then `CCCCCCCCCCCC(=O)OCCNC(=O)[C@H](O)[C@@H](O)[C@H](O)[C@H](O)CO` [N-D-Gluconyl C12 Ester of Ethanolamine, N-D-gluconyl dodecyl ester of ethanolamine], with 63 °C. For `CCCCCCCCCCCCOC(=O)CNC(=O)[C@H](O)[C@@H](O)[C@H](O)[C@H](O)CO` [N-D-Gluconyl C12 Glycinate, N-D-gluconyl dodecyl glycinate], the “Krafft Point (0.1%)” value in the series “Krafft point” came out at 63 °C. As to `CCCCCCCC/C=C\CCCCCCCCNCCCNC(=O)[C@H](O)[C@@H](O)[C@H](O)[C@H](O)CO` [Oleylaminopropyl D-Gluconamide, oleylaminopropyl D-gluconamide], the “Krafft Point (0.1%)” value in the series “Krafft point” was below 0 °C. The “Foam Height Final” value in series [1] is listed as 84 mm. `CCCCCCCC/C=C\CCCCCCCCNCCCNC(=O)[C@H](O)[C@@H](O)[C@H](O[C@@H]1O[C@H](CO)[C@H](O)[C@H](O)[C@H]1O)[C@H](O)CO` [Oleylaminopropyl D-Lactobionamide, oleylaminopropyl D-lactobionamide]: the “Krafft Point (1.0%)” value in the series “Krafft point” was below 0 °C. With soyaaminopropyl D-gluconamide, the “Krafft Point (0.1%)” value in “Krafft point” is below 18 °C.
